In patent publication US20080044404A1, “Annexin V for Preventing Atherothrombosis and Plaque Rupture” (priority 2004, published 2008):
Values joined by “and” are separate entries in the source; they are usually repeats but may differ in a detail not shown here. Equal entries are not always repeated. Where two headings read alike, the source gives them in different places.

Experiments:
[1] = system: human umbilical endothelia cells (HUVECs); test: Annexin V binding to HUVECs after 24 hrs culture with high aPLs titer serum pre-incubated with test substance, flow cytometry; type: cell-based; conditions: for Mean % of APS, Av / Median % of APS, Av: average of three; for Mean % of APS, Av / Median % of APS, Av / Mean % of APS / Median % of APS: 24 hrs culture; for Mean % of APS / Median % of APS: single experiments; for Effect on Annexin V binding to endothelial cells: preincubation of serum known to decrease binding; for Geo Mean (fluorescence) / Mean (fluorescence) / Median (fluorescence) / Peak Ch / % Gated (Annexin V positive region): file '100' 24 hrs on HUVEC
Description: Cryopreserved pooled human umbilical venous endothelial cells (HUVECs) at passage 2 were purchased from Cascade Biologics, Inc. (Portland, Oreg., USA) the cultures were maintained in EGM™ phenol red-free medium (Clonetics, San Diego, Calif., USA), containing 2% of fetal bovine serum and supplements. The cells were incubated in 75 cm2 flasks (TPP, AG, Trasadingen, Switzerland) under humidified 5% CO2 in 37° C. conditions. All experiments were performed at passage 3 to 4. HUVECs were seeded at 2×10^4 cells/ml density in 12-well plates (NUNC, Inc, Naperville, Ill., USA) for flow cytometry analysis; at density of 1×10^4 cells/well/100 μl in 96-well plate (TPP) for MTT assay; at 8×10^3 cells/ml. density in 24-well plates (NUNC) for DNA fragmentation ELISA. After allowing 12-24 hours for attachment and careful washing with serum-free medium (SFM), the cells were made quiescent in SFM for at least 12 hrs prior to treatment. Heparin-preserved plasma from the study groups was added to the monolayer at concentration of 10% in SFM.
The cells were harvested non-enzymatically with Cell Dissociation Solution (CDS; Sigma-Aldrich, St. Louis, Mo., USA). HUVECs were carefully pooled with supernatants, to exclude selective loss of detached floating EC, and centrifuged at 1200 rpm for 7 min. After resuspension in 100 μl of Annexin V-binding buffer (Molecular Probes Inc, Eugene, Oreg., USA) samples were stained with 5 mg/ml of Annexin V-FITC (Mol. Probes) and incubated for 15 min on ice. Shortly before acquisition 1 mg/ml of propidium iodide (PI; R&DSystems Europe Ltd, Abingdon, UK) was added. Analysis was performed on a FACScan flow cytometer (BD Biosciences, San Jose, Calif., USA) equipped with CellQuest™ software. During acquisition a gate was set to exclude events smaller than 230 on linear FCS and SSC scale. For each sample 10000 events were collected.
Heparin-preserved plasma with high capacity to inhibit Annexin V binding was added to HUVECs monolayer at concentration of 10% in SFM. After 24 hrs cells were harvested with Cell Dissociation Solution (CDS; Sigma-Aldrich, St. Louis, Mo., USA) and carefully pooled with supernatants, to exclude selective loss of detached floating cells, centrifugation at 1200 rpm for 7 min followed. After resuspension in 100 μl of annexin V-binding buffer (Molecular Probes Inc, Eugene, Oreg., USA) samples were stained with 2 μl of 5 mg/ml annexin V-FITC (Molecular Probes) and incubated for 15 min on ice. Shortly before acquisition 1 mg/ml of propidium iodide (PI; a vital dye; R&DSystems Europe Ltd, Abingdon, UK) was added. Analysis was performed as described above.
The frequency of HUVECs positive for Annexin V staining was determined either as percentage of annexin V^+/PI^− cells on a bivariate dot plot or percentage of Annexin V^+ cells based on a histogram. Annexin V-binding to HUVECs in the presence of serum known to decrease binding and preincubated with IVIG was determined.

[2] = Serum binding to antigen after preincubation of serum with antigen; conditions: preincubation of serum with high capacity to induce decreased binding
Source text: Polysorp F96 microtiter immuno-plates were purchased from Nunc (Roskilde Denmark), PC-BSA (Phosphorylcholine-Bovine Serum Albumin) was purchased from Biosearch Technologies, INC (USA). Bovine serum albumin (BSA), Alkaline phosphatase conjugated goat anti-human IgG (r-chain specific), Alkaline phosphatase conjugated goat anti-human IgM (u-chain specific), PNPP(Alkaline phosphatase substrate), were obtained from Sigma (St. Louis, Mo., USA). For example, IgG and IgM antibodies to PC-BSA were determined by enzyme-linked immunosorbent assay (ELISA). Pooled serum from 17 antiphospholipid syndrome patients was used as an internal standard and tested on every plate. […] F96 microtiter polysorp plate was therefore coated with PC-BSA (10 μg/ml) 50 μl/well in PBS. Coated plates were incubated overnight at 4° C. After five washings with PBS, the plates were blocked with 2% BSA-PBS for 2 h at room temperature and washed as described above. Serum samples were diluted (1:30) in 0.2% BSA-PBS and added at 50 μl/well.

[3] = humans; cited from earlier work
[4] = experimental animals; cited from earlier work

In the case of `CCCCCCCCCCCCCCCCOC[C@H](COP(=O)([O-])OCC[N+](C)(C)C)OC(C)=O` [PAF], the “Mean % of APS, Av” value ([1]; 10 μg/ml) is reported as 135 % of APS, the “Median % of APS, Av” value ([1]; 10 μg/ml) is reported as 132 % of APS and the “Mean % of APS” value ([1]; 10 μg/ml) is reported as 100 % of APS and 155.6 % of APS and 149.8 % of APS. For the same compound, the “Median % of APS” value ([1]; 10 μg/ml) was 99 % of APS and 134 % of APS and 164 % of APS, the “Mean % of APS, Av” value ([1]; 100 μg/ml) was 137 % of APS and the “Median % of APS, Av” value ([1]; 100 μg/ml) was 136 % of APS. For the same compound, the “Mean % of APS” value ([1]; 100 μg/ml) was 151 % of APS and 122 % of APS and 139 % of APS, the “Median % of APS” value ([1]; 100 μg/ml) was 145 % of APS and 116 % of APS and 147 % of APS and the “Effect on Annexin V binding to endothelial cells” value (shortened to “Effect on Annexin V binding”) [1] was “restored Annexin V binding”. For the same compound, the “Serum binding to antigen” value [2] was “decreased serum binding to antigen”.

With `C[N+](C)(C)CCOP(=O)(O)O` [PC, phosphorylcholine] the “Effect on Annexin V binding” value [1] was “no significant effect”.

For “Annexin V: Annexin V protein, binds calcium and negatively charged phospholipids”, the “half-life in the circulation” value [3] is given as “short half-life” and the “half-life in the circulation” value [4] is given as 5 to 15 min.

In the case of lysophosphatidylcholine [Lyso PC], the “Mean % of APS, Av” value ([1]; 10 μg/ml) is reported as 150 % of APS, the “Median % of APS, Av” value ([1]; 10 μg/ml) is reported as 146 % of APS and the “Mean % of APS” value ([1]; 10 μg/ml) is reported as 123.6 % of APS and 156.9 % of APS and 169.5 % of APS. For the same compound, the “Median % of APS” value ([1]; 10 μg/ml) was 121.88 % of APS and 138.23 % of APS and 178.5 % of APS, the “Mean % of APS, Av” value ([1]; 100 μg/ml) was 156 % of APS and the “Median % of APS, Av” value ([1]; 100 μg/ml) was 155 % of APS. For the same compound, the “Mean % of APS” value ([1]; 100 μg/ml) was 158.1 % of APS and 114.7 % of APS and 195.12 % of APS, the “Median % of APS” value ([1]; 100 μg/ml) was 175.39 % of APS and 115.4 % of APS and 174.65 % of APS and the “Geo Mean (fluorescence)” value ([1]; all events (100.00 % gated)) was 62.95. For the same compound, the “Mean (fluorescence)” value ([1]; all events (100.00 % gated)) was 275.37, the “Median (fluorescence)” value ([1]; all events (100.00 % gated)) was 153.99 and the “Peak Ch” value ([1]; all events (100.00 % gated)) was 1. The “% Gated (Annexin V positive region)” value ([1]; second histogram region) was 67.03%, the “Geo Mean (fluorescence)” value ([1]; second histogram region) was 268.96 and the “Mean (fluorescence)” value ([1]; second histogram region) was 408.50. For the same compound, the “Median (fluorescence)” value ([1]; second histogram region) was 352.27, the “Peak Ch” value ([1]; second histogram region) was 453 and the “Effect on Annexin V binding” value [1] was “restored Annexin V binding”. For the same compound, the “Serum binding to antigen” value [2] was “decreased serum binding to antigen”.

With phosphatidylserine the “Effect on Annexin V binding” value [1] was “restored Annexin V binding” and the “Serum binding to antigen” value [2] was “decreased serum binding to antigen”.

In the case of tetanus toxoid, the “Geo Mean (fluorescence)” value ([1]; all events (100.00 % gated)) is reported as 47.62, the “Mean (fluorescence)” value ([1]; all events (100.00 % gated)) is reported as 155.14 and the “Median (fluorescence)” value ([1]; all events (100.00 % gated)) is reported as 113.42. The “Peak Ch” value ([1]; all events (100.00 % gated)) was 1, the “% Gated (Annexin V positive region)” value ([1]; second histogram region) was 66.69% and the “Geo Mean (fluorescence)” value ([1]; second histogram region) was 173.93. The “Mean (fluorescence)” value ([1]; second histogram region) was 230.12, the “Median (fluorescence)” value ([1]; second histogram region) was 212.88 and the “Peak Ch” value ([1]; second histogram region) was 222.
